Several values for one entry are separate records, joined by “and”; a condition that tells them apart may be missing. Equal entries are not always repeated. Marks after values point to notes of the source that are not given here.
Experiments:
NCR = experiment: Limit of response rating of squash blossom volatiles on sticky traps (Example 5); assay type: in vivo, Diabrotica barberi; settings: 24 hour; four replicate traps; 0.01 mg to 200 mg
Experimental: (§1) Over 40 individual volatile chemicals have been isolated from Cucurbita maxima blossoms and circa 25 of these have been unequivocally identified (Andersen, J. F., J. Agric. Food Chem., 35:60-62 (1987): Andersen, J. F. and Metcalf, R. L., J. Chem. Ecol., 12:687-699 (1986)). The major odor components were evaluated as potential attractants for adult Diabrotica species using cylindrical sticky traps baited with dental cotton wicks (Metcalf, R. L., and Lampman, R. L., Paper submitted to J. Econ. Entomol., (1988)) containing from 0.01 mg to 200 mg of volatile compound.

SCR = experiment: as above; assay type: in vivo, Diabrotica undecimpunctata howardi; settings: 24 hour; four replicate traps; 0.01 mg to 200 mg
Experimental: as §1

WCR = experiment: as above; assay type: in vivo, Diabrotica virgifera virgifera; settings: 24 hour; four replicate traps; 0.01 mg to 200 mg
Experimental: as §1

[1] = tested on: southern corn rootworm (SCR) adults; experiment: Sticky trap attraction in sweet corn plots (Example 1); assay type: in vivo, Diabrotica undecimpunctata howardi; settings: August 4, second year, each compound 20 mg per trap
Experimental: (§2) The attraction of Diabrotica species to single-component and multicomponent lures was evaluated in corn fields. The field experiments on attraction of SCR and WCR adults were conducted in 0.405-ha (1-acre) plots of “Illini Xtra Sweet” corn grown on the University of Illinois South Farms at Urbana, Ill., over a two year period. Most of the tests were conducted in August to correspond with the peak silk-feeding and oviposition periods of corn rootworm adults in central Illinois. In both years, the sweet corn plot was adjacent to a 0.405-ha trap crop of C. maxima cultivar “Blue Hubbard”, to provide high densitites of SCR and WCR adults in the corn plots (Howe, et al., Environ. Entomol., 5:745-751 (1976), Lampman, et al., J. Chem. Ecol., 13:959-975 (1987).
(§3) Attraction of Diabrotica species to volatile compounds was measured by the average number of beetles cought during a 24-h period on 1.0-liter cylindrical paper cartons (15.2 cm high, 27.9 cm circumference) which were evenly coated with clear insect adhesive, TangleTrap™ (Tanglefood Co., Grand Rapids, Mich.) The candidate attractants were applied by capillary micropiettes to cotton dental wicks (13 mm long by 6 mm diameter) that were previously impregnated with mineral oil to prolong volatilization. The chemicals were purchased from Aldrich Chemical Co., (Milwaukee, Wis.) and assayed by gas chromatography as >97% pure. Indole, a solid at ambient temperatures (m.p. 52-54° C.), was dissolved in glass-distilled acetone before dosing the cotton wicks. For dosage-acticity tests, the various components were mixed in equal quantities by weight and diluted to the appropriate dosage with acetone. Treated and untreated (control) wicks were attached to the top of the paper cartons with TangleTrap™ and the inverted traps were placed on 1-m-high posts between the sweet corn rows. Four replicates of each treatment and a control were conducted in a randomized complete block desgin. The sticky traps within a block (ca. 50-m row of corn) were 5-10 m apart (depending on the number of treatments in a particular test) and the blocks were 3 m apart. The traps were baited and placed in the field between 1000 and 1300 hours and beetle counts were taken after 24 h. The significance of treatments was determined by analysis of variance and the individual means were separated by Duncan's multiple range test (Statistical Package for Social Sciences (SPSS) (Nie, et al., SPSS: statistical package for the social sciences, 2nd ed. McGraw-Hill, N.Y. (1975)). Student's t test was used for comparisons of two means (Sokal, et al., Biometry, Freeman, San Francisco (1969). Significance levels were set at P=0.05 at all statistical analyses.
(§4) The initial field test in August of the first year evaluated the response of SCR and WCR adults of a mixture of veratrole (V), indole (I), phenylacetaldehyde (P), trans-anethole (A), and eugenol (E) (=VIPAE mixture), as well as to the individual components. Each component in the VIPAE mixture was present at a dosage of 20 mg per trap and was compared with the individual components at 100 mg per trap. The response of SCR and WCR adults to a range of VIPAE doses, 1-300 mg, was conducted on the following day. Fifty SCR adults were removed from each 100-mg VIPAE trap, and returned to the laboratory for sex determination. Additional analyses in August evaluated the reduction in trap catches produced by the sequential removal of the individual components from the VIPAE lure. After the primary components of the initial lure were determined, a modified multicomponent lure consisting of veratrole, indole, and phenylacetaldehyde (=VIP mixture) was compared with its individual components to determine whether the attraction of SCR adults was the result of interactive or additive factors. The attraction and synergistic response of SCR adults of the VIP mixture was verified by tests conducted in August of the following year. […]

[2] = tested on: western corn rootworm (WCR) adults; experiment: as above; assay type: in vivo, Diabrotica virgifera virgifera; settings: August 4, second year, each compound 20 mg per trap
Experimental: as §2, §3, §4

D. barberi = experiment: Sticky trap attraction in prairie habitat, Trelease Woods (Example 2); assay type: in vivo, Diabrotica barberi; settings: 100 mg per trap, n = 4
Experimental: (§5) The candidate lures in all experiments were purchased commercially and exceeded 98% purity. The test chemicals were applied by capillary micropipettes to cotton dental wicks which were attached to the tops of 1.0 liter cylindrical paper cartons covered with TangleTrap™ (Tanglefoot Co., Grand Rapids, Mich.). The sticky trap techniques used were as described in Example 1. Cinnamyl alcohol and para-methoxycinnamaldehyde, which are solids, were dissolved in glass-distilled acetone prior to dosing the cotton wicks. […]. Control traps had untreated cotton wicks. Four replicates of treated and untreated traps were randomly positioned 10 meters apart on top of 1 m high posts along the border of a eight foot wide strip cut through the middle of a 4.05 ha relict prairie at Trelease Woods (ca. two miles northeast of Urbana, Ill.). The field consisted primarily of Andropogon gerardii Vitman (big bluestem) and a variety of composites. The tests were conducted in mid-August of two years and were timed to coincide with the presence of D. cristata and D. barberi adults in the flower heads of Canada thistle (Carduus arvensis Robson). In the second year, several new attractants of D. v. virgifera and D. barberi were tested in Trelease Woods and along the edge of a 0.8 ha field of hybrid corn located at the Pomology South Farms, Urbana, Ill. Attraction of Diabrotica species to the various lures was measured by the mean number of beetles caught after 24-h. On one date in late August of the first year, D. cristata and D. barberi were removed from the traps and sexed in the laboratory. The significance of treatments in all tests was determined by an analysis of variance and the individual means were separated by Duncan's multiple range test (Statistical Package for Social Science, Nie, et al., SPSS: statistical package for the social sciences, 2nd ed. McGraw-Hill, New York (1975). Data were logarithmically transformed for statistical analysis and the means and standard deviations are presented for the untransformed data.

D. cristata = experiment: as above; assay type: in vivo, Diabrotica cristata; settings: 100 mg per trap, n = 4
Experimental: as §5

D. v. virgifera = experiment: as above; assay type: in vivo, Diabrotica virgifera virgifera; settings: 100 mg per trap, n = 4
Experimental: as §5

D. u. howardi = experiment: as above; assay type: in vivo, Diabrotica undecimpunctata howardi; settings: 100 mg per trap, n = 4
Experimental: as §5

## COc1ccc(OC)c(OC)c1 [1,2,4-trimethoxybenzene]
NCR
  Attractant Rating NCR (by limit of response): 0 (200)
SCR
  Attractant Rating SCR (by limit of response): +1 (30-100)
WCR
  Attractant Rating WCR (by limit of response): +1 (30-100)

## CCC/C=C/CO [trans-2-hexenol]
NCR
  Attractant Rating NCR (by limit of response): 0 (200)
SCR
  Attractant Rating SCR (by limit of response): +1 (30-100)
WCR
  Attractant Rating WCR (by limit of response): +1 (30-100)

## C=CC(C)(O)CCC=C(C)CCC=C(C)C (stereo not shown) [nerolidol]
NCR
  Attractant Rating NCR (by limit of response): 0 (200)
SCR
  Attractant Rating SCR (by limit of response): 0 (200)
WCR
  Attractant Rating WCR (by limit of response): 0 (200)

## CCCCCC=O [1-hexanal]
NCR
  Attractant Rating NCR (by limit of response): 0 (200)
SCR
  Attractant Rating SCR (by limit of response): 0 (200)
WCR
  Attractant Rating WCR (by limit of response): 0 (200)

## COc1ccc(OC)cc1 [1,4-dimethoxybenzene]
NCR
  Attractant Rating NCR (by limit of response): 0 (200)
SCR
  Attractant Rating SCR (by limit of response): 0 (200)
WCR
  Attractant Rating WCR (by limit of response): 0 (200)

## CC/C=C\CCO [cis-3-hexenol]
NCR
  Attractant Rating NCR (by limit of response): 0 (200)
SCR
  Attractant Rating SCR (by limit of response): 0 (200)
WCR
  Attractant Rating WCR (by limit of response): +1 (30-100)

## COc1ccccc1O [Guaiacol, 2-methoxyphenol]
[1]
  relative percent activity (SCR) as compared with the highest mean value for the test date: 2%
[1]; n = 4
  Mean number of SCR per trap (±standard deviation): 0.8 ± 0.6 per trap
[2]
  relative percent activity (WCR) as compared with the highest mean value for the test date: 39%
[2]; n = 4
  Mean number of WCR per trap (±standard deviation): 20.0 ± 8.9 per trap
D. barberi; August 20, first year
  Mean number of D. barberi per sticky trap per day (±standard deviation): 4.3 ± 2.1^b per sticky trap per day
D. cristata; August 20, first year
  Mean number of D. cristata per sticky trap per day (±standard deviation): 6.0 ± 2.6^b per sticky trap per day
D. v. virgifera; August 20, first year
  Mean number of D. v. virgifera per sticky trap per day (±standard deviation): 0 per sticky trap per day
D. u. howardi; August 20, first year
  Mean number of D. u. howardi per sticky trap per day (±standard deviation): 0.8 ± 1.0^a per sticky trap per day

## COc1ccc(C=O)cc1 [p-methoxybenzaldehyde]
NCR
  Attractant Rating NCR (by limit of response): 0 (200)
SCR
  Attractant Rating SCR (by limit of response): 0 (200)
WCR
  Attractant Rating WCR (by limit of response): 0 (200)

## CCC/C=C/C=O [trans-2-hexenal]
NCR
  Attractant Rating NCR (by limit of response): 0 (200)
SCR
  Attractant Rating SCR (by limit of response): 0 (200)
WCR
  Attractant Rating WCR (by limit of response): 0 (200)

## CC=Cc1ccc(O)c(OC)c1 [Isoeugenol]
D. barberi; August 18, first year
  Mean number of D. barberi per sticky trap per day (±standard deviation): 31.8 ± 26.7^b per sticky trap per day
D. barberi; August 27, first year
  Mean number of D. barberi per sticky trap per day (±standard deviation): 8.5 ± 3.4^b per sticky trap per day
D. cristata; August 18, first year
  Mean number of D. cristata per sticky trap per day (±standard deviation): 10.5 ± 12.6^b per sticky trap per day
D. cristata; August 27, first year
  Mean number of D. cristata per sticky trap per day (±standard deviation): 2.5 ± 1.7^b per sticky trap per day
D. v. virgifera; August 18, first year
  Mean number of D. v. virgifera per sticky trap per day (±standard deviation): 0.0^a per sticky trap per day
D. v. virgifera; August 20, first year
  Mean number of D. v. virgifera per sticky trap per day (±standard deviation): 0 per sticky trap per day
D. v. virgifera; August 27, first year
  Mean number of D. v. virgifera per sticky trap per day (±standard deviation): 0 per sticky trap per day
D. u. howardi; August 18, first year
  Mean number of D. u. howardi per sticky trap per day (±standard deviation): 0.0^a per sticky trap per day
D. u. howardi; August 20, first year
  Mean number of D. u. howardi per sticky trap per day (±standard deviation): 0.5 ± 1.0^a per sticky trap per day and 1.0 ± 0.8^a per sticky trap per day
D. u. howardi; August 27, first year
  Mean number of D. u. howardi per sticky trap per day (±standard deviation): 0.5 ± 1.0^a per sticky trap per day

## C=CCc1ccc(OC)c(OC)c1 [Methyl eugenol]
D. barberi; August 14, 1987
  Mean number of D. barberi per day (±standard deviation): 1.0 ± 1.4^a per day
D. barberi; August 18, first year
  Mean number of D. barberi per sticky trap per day (±standard deviation): 1.8 ± 1.7^a per sticky trap per day
D. barberi; August 20, first year
  Mean number of D. barberi per sticky trap per day (±standard deviation): 2.0 ± 1.4^ab per sticky trap per day
D. cristata; August 14, 1987
  Mean number of D. cristata per day (±standard deviation): 4.5 ± 1.3^ab per day
D. cristata; August 18, first year
  Mean number of D. cristata per sticky trap per day (±standard deviation): 1.8 ± 1.5^a per sticky trap per day
D. cristata; August 20, first year
  Mean number of D. cristata per sticky trap per day (±standard deviation): 1.5 ± 1.7^a per sticky trap per day
D. v. virgifera; August 14, 1987
  Mean number of D. v. virgifera per day (±standard deviation): 0.0^a per day
D. v. virgifera; August 18, first year
  Mean number of D. v. virgifera per sticky trap per day (±standard deviation): 0.0^a per sticky trap per day
D. v. virgifera; August 20, first year
  Mean number of D. v. virgifera per sticky trap per day (±standard deviation): 0 per sticky trap per day
D. u. howardi; August 14, 1987
  Mean number of D. u. howardi per day (±standard deviation): 0.3 ± 0.5^a per day
D. u. howardi; August 18, first year
  Mean number of D. u. howardi per sticky trap per day (±standard deviation): 0.0^a per sticky trap per day
D. u. howardi; August 20, first year
  Mean number of D. u. howardi per sticky trap per day (±standard deviation): 0.3 ± 0.5^a per sticky trap per day

## C=CCc1ccc2c(c1)OCO2 [Safrole]
D. barberi; August 20, first year
  Mean number of D. barberi per sticky trap per day (±standard deviation): 0.25 ± 0.25^a per sticky trap per day
D. cristata; August 20, first year
  Mean number of D. cristata per sticky trap per day (±standard deviation): 1.3 ± 1.9^a per sticky trap per day
D. v. virgifera; August 20, first year
  Mean number of D. v. virgifera per sticky trap per day (±standard deviation): 0 per sticky trap per day
D. u. howardi; August 20, first year
  Mean number of D. u. howardi per sticky trap per day (±standard deviation): 0.0^a per sticky trap per day

## CCCCCCO [1-hexanol]
NCR
  Attractant Rating NCR (by limit of response): 0 (200)
SCR
  Attractant Rating SCR (by limit of response): 0 (200)
WCR
  Attractant Rating WCR (by limit of response): 0 (200)

## OCc1ccccc1 [benzyl alcohol]
NCR
  Attractant Rating NCR (by limit of response): 0 (200)
SCR
  Attractant Rating SCR (by limit of response): 0 (200)
WCR
  Attractant Rating WCR (by limit of response): 0 (200)

## O=Cc1ccccc1 [benzaldehyde]
NCR
  Attractant Rating NCR (by limit of response): 0 (200)
SCR
  Attractant Rating SCR (by limit of response): 0 (200)
WCR
  Attractant Rating WCR (by limit of response): 0 (200)

— US6613317B1, “Volatile attractants for diabrotica species” (priority 1988, dated 2003)
